Patent US9266939B2, “Compositions comprising natriuretic peptides and methods of use thereof” (Alexion Pharmaceuticals, Inc., priority 2010, dated 2016)
Like-named read-outs stand apart in the source and are kept apart here. Bridge positions count the residues as written; N and C are the ends. Ends that are not written are not given here. Peptide text beside a SMILES is read from it.

How the values were obtained:
[1] = target: T1, neutral endopeptidase (NEP) (Homo sapiens, UniProt P08473); assay: in vitro; settings: isolated enzyme neprilysin, pH 7.5
T1 sequence (P08473 whole entry): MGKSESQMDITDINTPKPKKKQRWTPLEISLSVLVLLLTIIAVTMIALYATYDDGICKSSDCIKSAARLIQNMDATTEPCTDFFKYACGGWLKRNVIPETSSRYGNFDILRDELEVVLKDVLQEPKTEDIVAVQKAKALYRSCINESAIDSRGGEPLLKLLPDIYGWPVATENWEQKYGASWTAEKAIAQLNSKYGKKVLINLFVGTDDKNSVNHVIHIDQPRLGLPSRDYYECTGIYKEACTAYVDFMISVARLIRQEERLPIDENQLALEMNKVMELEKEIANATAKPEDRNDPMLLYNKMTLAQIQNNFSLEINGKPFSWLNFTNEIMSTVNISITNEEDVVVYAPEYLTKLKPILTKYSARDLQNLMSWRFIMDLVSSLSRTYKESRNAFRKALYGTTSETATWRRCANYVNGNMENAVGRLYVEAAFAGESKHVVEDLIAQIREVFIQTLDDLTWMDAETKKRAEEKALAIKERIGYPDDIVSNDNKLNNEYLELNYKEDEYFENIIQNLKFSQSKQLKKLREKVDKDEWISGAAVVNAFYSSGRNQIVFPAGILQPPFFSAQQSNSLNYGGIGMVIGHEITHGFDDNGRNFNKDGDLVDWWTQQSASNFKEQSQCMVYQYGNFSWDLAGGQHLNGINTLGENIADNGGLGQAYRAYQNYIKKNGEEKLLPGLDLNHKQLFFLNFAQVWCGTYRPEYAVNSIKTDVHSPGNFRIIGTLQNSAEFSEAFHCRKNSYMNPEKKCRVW

[2] = target: T2, NPR-B (Homo sapiens, UniProt P20594); assay: Whole cell guanylyl cyclase (cGMP) assay, NPR-B; assay type: cell-based; design: expressed in transfected cells; settings: for Emax: read-out: % Efficacy
T2 sequence (P20594 23-1047): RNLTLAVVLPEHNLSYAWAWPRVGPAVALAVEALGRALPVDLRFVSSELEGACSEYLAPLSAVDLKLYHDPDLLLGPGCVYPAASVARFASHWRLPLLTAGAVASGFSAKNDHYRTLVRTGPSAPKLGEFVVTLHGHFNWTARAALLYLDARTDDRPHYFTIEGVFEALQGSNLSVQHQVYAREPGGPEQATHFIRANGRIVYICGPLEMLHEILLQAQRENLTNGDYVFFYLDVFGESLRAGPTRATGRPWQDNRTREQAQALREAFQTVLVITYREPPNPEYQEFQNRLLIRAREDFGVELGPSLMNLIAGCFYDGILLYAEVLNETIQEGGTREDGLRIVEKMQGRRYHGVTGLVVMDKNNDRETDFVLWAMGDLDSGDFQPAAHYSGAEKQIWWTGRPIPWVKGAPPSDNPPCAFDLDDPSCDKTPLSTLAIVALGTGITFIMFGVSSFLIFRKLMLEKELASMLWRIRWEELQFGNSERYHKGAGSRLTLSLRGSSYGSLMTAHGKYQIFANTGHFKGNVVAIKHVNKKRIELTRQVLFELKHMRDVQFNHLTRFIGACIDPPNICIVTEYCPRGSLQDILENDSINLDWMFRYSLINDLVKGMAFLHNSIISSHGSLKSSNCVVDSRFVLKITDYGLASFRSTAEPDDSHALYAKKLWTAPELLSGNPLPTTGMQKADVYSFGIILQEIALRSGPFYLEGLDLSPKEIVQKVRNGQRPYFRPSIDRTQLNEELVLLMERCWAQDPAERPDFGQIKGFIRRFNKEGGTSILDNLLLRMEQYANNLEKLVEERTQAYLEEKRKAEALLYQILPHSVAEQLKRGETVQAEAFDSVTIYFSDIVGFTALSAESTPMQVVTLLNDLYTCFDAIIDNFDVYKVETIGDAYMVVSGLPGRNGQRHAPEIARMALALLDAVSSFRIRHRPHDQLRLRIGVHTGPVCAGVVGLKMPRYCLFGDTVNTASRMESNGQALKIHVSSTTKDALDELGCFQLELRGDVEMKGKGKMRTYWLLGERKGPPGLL
Procedure: HEK293S cells in a semi-confluent 75 cm2 flask are transfected with 30 μg of plasmid DNA coding for the appropriate receptor, e.g., human NPR-B or NPR-A, using Lipofectamine-2000CD. Alternatively, a stable polyclonal HEK293 S cell line expressing either human NPR-B or NPR-A was used. 24 hours after transfection, cells are trypsinized and plated into 48-well plates at 1×10^5 cells/well. Guanylyl cyclase assay is carried out 24 hours post-plating. Cells are first incubated for 30 minutes at 37° C. with serum-free DMEM medium. Then, they are incubated in triplicate with or without increasing concentrations of reference or test proteins in serum-free DMEM supplemented with 1 mM IBMX and 0.5% BSA, at 37° C. for 30 minutes to one hour. CNP serves as a suitable reference for NPR-B, while ANP is a suitable reference for NPR-A. Finally, cells are washed with ice-cold PBS and solubilized in lysis buffer from Catchpoint cGMP kit (Molecular devices). Concentrations of cGMP in lysate are determined using the Catchpoint cGMP kit. Dose-response curves are analysed with GraphPad Prism 5 software using non-linear regression with four-parameter logistic equation.

[3] = target: T1, neutral endopeptidase (NEP)

| Compound | remaining at 4 h [1] | EC50 Ratio versus CNP22 [2] | Rescue Ratio versus CNP22 [2] | EC50 ([2]; EC50) | EC50 ([2]; EC50 on NPR-B) | Rescue range ([2]; agonist concentration producing cGMP as 2.4 nM (lower) and 14 nM (high) CNP22) | Rescue Ratio Average ([2]; peptides, NPR-B whole cell cGMP assay) | Emax [2] | % of control after 240 min [3] | Resist NEP degradation (No/Yes) [3] | Rescue Ratio Average [2] | Rescue range [2] | potency compared with the other tested peptides [2] |
| --- | --- | --- | --- | --- | --- | --- | --- | --- | --- | --- | --- | --- | --- |
| CC[C@H](C)[C@@H]1NC(=O)[C@H](CCCNC(=N)N)NC(=O)[C@H](CC(=O)O)NC(=O)[C@H](CC(C)C)NC(=O)[C@H](CCCCN)NC(=O)[C@H](CC(C)C)NC(=O)CNC(=O)[C@H](Cc2ccccc2)NC(=O)[C@@H](NC(=O)CNC(=O)[C@H](CCCCN)NC(=O)[C@H](CO)NC(=O)[C@H](CC(C)C)NC(=O)CN)CSSC[C@@H](C(=O)N2CCC[C@H]2C(=O)N[C@@H](CO)C(=O)N[C@@H](CO)C(=O)N[C@@H](C)C(=O)N[C@@H](C)C(=O)N[C@@H](CCCNC(=N)N)C(=O)N[C@@H](CCCNC(=N)N)C(=O)O)NC(=O)CNC(=O)[C@H](CC(C)C)NC(=O)CNC(=O)[C@H](CO)NC(=O)[C@H](CCSC)NC(=O)[C@H](CO)NC(=O)CNC1=O [CDNP29-S3A4A5R6 [C14]] | 99% | – | – | – | – | – | – | – | – | – | – | – | – |
| CC[C@H](C)[C@@H]1NC(=O)[C@H](CCCNC(=N)N)NC(=O)[C@H](CC(=O)O)NC(=O)[C@H](CC(C)C)NC(=O)[C@H](CCCCN)NC(=O)[C@H](CC(C)C)NC(=O)CNC(=O)[C@H](Cc2ccccc2)NC(=O)[C@@H](NC(=O)CNC(=O)[C@H](CCCCN)NC(=O)[C@H](CO)NC(=O)[C@H](CC(C)C)NC(=O)CN)CSSC[C@@H](C(=O)N2CCC[C@H]2C(=O)N[C@@H](CO)C(=O)N[C@@H](CO)C(=O)N[C@@H](C)C(=O)N[C@@H](C)C(=O)N[C@@H](CCCNC(=N)N)C(=O)N[C@@H](CCCNC(=N)N)C(=O)N2CCC[C@H]2C(=O)N[C@@H](CC(N)=O)C(=O)N[C@@H](C)C(=O)N2CCC[C@H]2C(=O)N[C@@H](CO)C(=O)N[C@H](C(=O)N[C@@H](CO)C(=O)N[C@@H](C)C(=O)O)[C@@H](C)O)NC(=O)CNC(=O)[C@H](CC(C)C)NC(=O)CNC(=O)[C@H](CO)NC(=O)[C@H](CCSC)NC(=O)[C@H](CO)NC(=O)CNC1=O [CDNP-S3A4A5R6 [C13]] (HELM PEPTIDE1{G.L.S.K.G.C.F.G.L.K.L.D.R.I.G.S.M.S.G.L.G.C.P.S.S.A.A.R.R.P.N.A.P.S.T.S.A}$PEPTIDE1,PEPTIDE1,6:R3-22:R3$$$V2.0) | 100% | – | – | – | – | – | – | – | – | – | – | – | – |
| CC[C@H](C)[C@@H]1NC(=O)[C@H](CCCNC(=N)N)NC(=O)[C@H](CC(=O)O)NC(=O)[C@H](CC(C)C)NC(=O)[C@H](CCCCN)NC(=O)[C@H](CC(C)C)NC(=O)CNC(=O)[C@H](Cc2ccccc2)NC(=O)[C@@H](NC(=O)CNC(=O)[C@H](CCCCN)NC(=O)[C@H](CO)NC(=O)[C@H](CC(C)C)NC(=O)CN)CSSC[C@@H](C(=O)O)NC(=O)CNC(=O)[C@H](CC(C)C)NC(=O)CNC(=O)[C@H](CO)NC(=O)[C@H](CCSC)NC(=O)[C@H](CO)NC(=O)CNC1=O [CNP22, reference compound] | 0% | 1.00 | 1 | 14.7 ± 3.4 nM | 4.87 nM | 2.4 to 14 nM | 1 | 100% | 0% | No | – | – | – |
| CC[C@H](C)[C@@H]1NC(=O)[C@H](CCCNC(=N)N)NC(=O)[C@H](CC(=O)O)NC(=O)[C@H](CC(C)C)NC(=O)[C@H](CCCCN)NC(=O)[C@H](CC(C)C)NC(=O)CNC(=O)[C@H](Cc2ccccc2)NC(=O)[C@@H](NC(=O)CNC(=O)[C@H](CCCCN)NC(=O)[C@H](CO)NC(=O)[C@H](CC(C)C)NC(=O)CNC(=O)CNC(=O)[C@H](CO)NC(=O)[C@H](CO)NC(=O)[C@H](C)NC(=O)[C@H](C)NC(=O)[C@@H]2CCCN2C(=O)[C@H](CCCNC(=N)N)NC(=O)[C@@H]2CCCN2C(=O)[C@H](CC(N)=O)NC(=O)[C@H](C)NC(=O)[C@@H]2CCCN2C(=O)[C@H](CO)NC(=O)[C@@H](NC(=O)[C@H](CO)NC(=O)[C@H](C)N)[C@@H](C)O)CSSC[C@@H](C(=O)O)NC(=O)CNC(=O)[C@H](CC(C)C)NC(=O)CNC(=O)[C@H](CO)NC(=O)[C@H](CCSC)NC(=O)[C@H](CO)NC(=O)CNC1=O [CNP-Nterm2 [C5]] (HELM PEPTIDE1{A.S.T.S.P.A.N.P.R.P.A.A.S.S.G.G.L.S.K.G.C.F.G.L.K.L.D.R.I.G.S.M.S.G.L.G.C}$PEPTIDE1,PEPTIDE1,21:R3-37:R3$$$V2.0) | 106% | – | – | – | – | – | – | – | – | – | – | – | – |
| DDDDDDGGGGSGGGGSGGGGGLSKGCFGLKLDRIGSMSGLGC (disulfide 26-42) [D6-14AAlinker-CNP [C3]] | 101% | – | – | – | – | – | – | – | – | – | – | – | – |
| EEEEEEASTSPANPQPAASSPGLSKGCFGLKLDRIGSMSGLGC (disulfide 27-43) [C2(E6) [BC2]] | 101% | 49.0 | 177-1429 | 720 nM | – | – | – | 97% | – | Yes | 803 | 424 to 20000 nM | – |
| EEEEEEHGPQGQEHPNARKYKGANKKGLSKGCFGLKLDRIGSMSGLGC (disulfide 32-48) [KA1(E6)] | 108% | 9.79 | – | 144 nM | – | – | – | 108% | – | Yes | 8.2 | 21.6 to 102 nM | more potent than the other tested peptides |
| EEEEEEHKLRGQEHPNARKYKGANKKGLSKGCFGLKLDRIGSMSGLGC (disulfide 32-48) [KB1(E6)] | 107% | 5.75 | 5.6-5.6 | 84.5 nM | – | – | – | 109% | – | Yes | 5.6 | 13.4 to 78.1 nM | more potent than the other tested peptides |
| EEEEEEPSSAAPQPNAPSTSAGLSKGCFGLKLDRIGSMSGLGC (disulfide 27-43) [C3(E6) [BC3]] | 100% | 67.4 | 117-281 | 990 nM | – | – | – | 67% | – | Yes | 199 | 280 to 3927 nM | – |
| EEEEEESGGGGSGGGGSGGGGGLSKGCFGLKLDRIGSMSGLGC (disulfide 27-43) [C1(E6) [BC1]] | 99% | 118 | 120-124 | 1740 nM | – | – | – | 97% | – | Yes | 122 | 289 to 1733 nM | – |
| EEEEEESGGGGSGGGKGANKKGLSKGCFGLKLDRIGSMSGLGC (disulfide 27-43) [C4(E6) [BC4]] | 94% | 20.5 | – | 302 nM | – | – | – | 136% | – | Yes | 18 | 46 to 219 nM | – |
| EEEEEESGGGGSGGGKGANKQGLSKGCFGLKLDRIGSMSGLGC (disulfide 27-43) [C6(E6) [BC6]] | 98% | 45.7 | 55-70 | 672 nM | – | – | – | 88% | – | Yes | 63 | 132 to 973 nM | – |
| EEEEEESGGGGSGGGKGANQKGLSKGCFGLKLDRIGSMSGLGC (disulfide 27-43) [C7(E6) [BC7]] | 98% | 68.6 | 74-85 | 1010 nM | – | – | – | 95% | – | Yes | 80 | 177 to 1193 nM | – |
